Data: US20210363254A1, “PHARMACEUTICAL COMBINATIONS” (Novartis AG, priority 2018, published 2021)
Where two headings read alike, the source gives them in different places.

Legend:
[1] = system: human HSAX2655 (liposarcoma) PDX; test: TGI PK/PD modelling, human HSAX2655 (liposarcoma) PDX rat; type: in vivo
Experimental: (§1) Compartmental population PK modeling of NVP-HDM201 was used to estimate the individual average plasma concentration for Cycle 1 and to allow comparison with preclinical average concentration for tumor stasis derived by PK/PD tumor growth modeling. […] The dashed line at concentration of ≈19 ng/mL represents average tumor stasis determined from PK/PD modeling of preclinical data from a liposarcoma (HSAX2655) patient-derived xenograft rat model.

[2] = type: in vivo, human
Experimental: Pharmacokinetic data have been evaluated throughout the course of the dose escalation. Two HDM201 drug variants have been evaluated during the course of the study (refer to the protocol for further details). […] Furthermore, an integrated analysis of all available HDM201 concentrations was conducted using a population approach. The PK of HDM201 was best described by a 1-compartment PK model with a delayed zero- and first-order absorption process, and a linear clearance. Body weight was identified as a statistically significant covariate on apparent central volume of distribution (Vc/F), in which Vc/F increased with increasing body weight.
To further support the preferred dose for HDM201, compartmental PK modeling was used to estimate the individual average concentration per cycle for the 9 patients treated at 120 mg on regimen 1B (FIG. 15). For the majority of patients (7 out of 9), the estimated average drug concentrations per cycle were near or above the most conservative average tumor stasis concentration of ˜41 ng/mL per cycle determined from PKPD modeling of preclinical data (human SJSA-1 xenograft rat model).
as §1

[3] = type: in vivo
From the text: The endpoint for the primary objective is the incidence of Dose Limiting Toxicities (DLTs) during the first cycle of treatment. Although the primary analysis estimates the MTD based on DLT rate, the final preferred dose determination utilizes additional data beyond cycle 1 DLT rate, including later cycle tolerability, PK, PD and anti-tumor activity.
Therefore, dose limiting hematologic toxicities occurring in cycle 2 were also factored into dose escalation decisions during the course of the study, using a non-binding sensitivity model. Table Ex2.4 summarizes the number of dose limiting toxicities during cycle 1 and dose limiting hematologic toxicities in cycle 2 across all the regimens evaluated in solid tumors.
This study utilizes a Bayesian logistic regression model (BLRM) to support dose escalation and estimate the MTD and/or determine the preferred dose for HDM201. The BLRM with escalation with overdose control (EWOC) enables incorporation of available prior information and updates the model parameters based upon new information about observed dose limiting toxicities (DLT) seen in the clinical study. During the course of the dose escalation for regimen 1A and 1B, DLT incidence has been used to update the model and support the decision for the next dose. When during the course of the study it became apparent that HDM201 induced bone marrow toxicity occurred predominantly during cycle 2, a non-binding sensitivity model including cycle 1 DLT and hematologic dose limiting AEs in cycle 2 (weighting all cytopenias equally) was used to guide dose escalation/RDE determinations. Additionally, decisions were at all times based on a synthesis of relevant data available from all dose levels evaluated in the study including low grade toxicities, PK, and PD data (when available) from evaluable patients.

[4] = 1A (d 1 Q3 weeks) 12.5 mg (n = 1)
[5] = 1B (d 1, d 8 of 4 w cycle) 120 mg (n = 9)
[6] = 2A (2 weeks on/2 weeks off) 1 mg (n = 1)
[7] = 2C (1 week on/3 weeks off) 15 mg (n = 8)

COc1ncc(-c2nc3c(n2C(C)C)[C@H](c2ccc(Cl)cc2)N(c2cc(Cl)cn(C)c2=O)C3=O)c(OC)n1 [HDM201, (S)-5-(5-Chloro-1-methyl-2-oxo-1,2-dihydro-pyridin-3-yl)-6-(4-chloro-phenyl)-2-(2,4-dimethoxy-pyrimidin-5-yl)-1-isopropyl-5,6-dihydro-1H-pyrrolo[3,4-d]imidazol-4-one]
limited accumulation: accumulation upon daily dosing ([2]; human, in vivo)
One: events of prolonged neutropenia meeting DLT criteria ([3]; regimen 1B 150 mg, onset on day 22, lasting 18 days)
3.5%: Median DLT rate, per protocol analysis ([3]; BLRM, regimen 1B 120 mg)
≈ 19 ng/mL: Average concentration for tumor stasis ([1]; listed as NVP-HDM201)
4: Hematologic dose limiting toxicities (cycle 2) ([3]; 2A 20 mg (n = 5))
2 to 5.8 h: median time to reach maximum plasma concentrations (Tmax) ([2]; dose range 2 to 350 mg)
5: Hematologic dose limiting toxicities (cycle 2), Total ([3]; regimen 1A, N = 26) | Hematologic dose limiting toxicities (cycle 2), Total ([3]; regimen 2A, N = 20)
7 out of 9: patients with estimated average drug concentration per cycle near or above ~41 ng/mL ([2]; regimen 1B 120 mg, compartmental PK modeling)
25.7%: Median DLT rate, sensitivity analysis ([3]; BLRM, regimen 1B 120 mg)
3: Hematologic dose limiting toxicities (cycle 2), Total ([3]; regimen 1B, N = 20)
2: DLTs (cycle 1) ([3]; 1A 350 mg (n = 5)) | Hematologic dose limiting toxicities (cycle 2) ([3]; 1A 350 mg (n = 5)) | Hematologic dose limiting toxicities (cycle 2) [3, 5] | DLTs (cycle 1) ([3]; 2C 25 mg (n = 5)) | DLTs (cycle 1), Total ([3]; regimen 1A, N = 26) | DLTs (cycle 1), Total ([3]; regimen 2C, N = 19)
neutropenia and thrombocytopenia: Dose-limiting toxicities (type) ([3]; typically occurring during Cycle 2)
120 mg: RDE for patients with solid tumors ([3]; D1 and D8 of each 28 day cycle)
up to 400 mg: dose up to which BLRM (cycle 1 DLT events) supported escalation ([3]; regimen 1B)
0: DLTs (cycle 1) ([3]; 1A 25 mg (n = 1)) | Hematologic dose limiting toxicities (cycle 2) ([3]; 1A 25 mg (n = 1)) | DLTs (cycle 1) ([3]; 1A 50 mg (n = 4)) | DLTs (cycle 1) ([3]; 1A 100 mg (n = 4)) | Hematologic dose limiting toxicities (cycle 2) ([3]; 1A 100 mg (n = 4)) | DLTs (cycle 1) ([3]; 1A 200 mg (n = 5)) | DLTs (cycle 1) ([3]; 1A 250 mg (n = 6)) | DLTs (cycle 1) [3, 4] | Hematologic dose limiting toxicities (cycle 2) [3, 4] | DLTs (cycle 1) ([3]; 1B 200 mg (n = 3)) | DLTs (cycle 1) [3, 5] | DLTs (cycle 1) ([3]; 2A 2 mg (n = 2)) | Hematologic dose limiting toxicities (cycle 2) ([3]; 2A 2 mg (n = 2)) | DLTs (cycle 1) ([3]; 2A 4 mg (n = 4)) | Hematologic dose limiting toxicities (cycle 2) ([3]; 2A 4 mg (n = 4)) | DLTs (cycle 1) ([3]; 2A 7.5 mg (n = 4)) | Hematologic dose limiting toxicities (cycle 2) ([3]; 2A 7.5 mg (n = 4)) | DLTs (cycle 1) ([3]; 2A 15 mg (n = 4)) | DLTs (cycle 1) ([3]; 2A 20 mg (n = 5)) | DLTs (cycle 1) [3, 6] | Hematologic dose limiting toxicities (cycle 2) [3, 6] | DLTs (cycle 1) ([3]; 2C 20 mg (n = 6)) | Hematologic dose limiting toxicities (cycle 2) ([3]; 2C 20 mg (n = 6)) | Hematologic dose limiting toxicities (cycle 2) ([3]; 2C 25 mg (n = 5)) | DLTs (cycle 1) [3, 7] | DLTs (cycle 1), Total ([3]; regimen 2A, N = 20)
≤ 8 days: steady-state reached ([2]; daily dosing)
19 ng/mL: Average concentration for tumor stasis [1]
1: Hematologic dose limiting toxicities (cycle 2) ([3]; 1A 50 mg (n = 4)) | Hematologic dose limiting toxicities (cycle 2) ([3]; 1A 200 mg (n = 5)) | Hematologic dose limiting toxicities (cycle 2) ([3]; 1A 250 mg (n = 6)) | DLTs (cycle 1) ([3]; 1B 150 mg (n = 8)) | Hematologic dose limiting toxicities (cycle 2) ([3]; 1B 150 mg (n = 8)) | Hematologic dose limiting toxicities (cycle 2) ([3]; 2A 15 mg (n = 4)) | Hematologic dose limiting toxicities (cycle 2) [3, 7] | DLTs (cycle 1), Total ([3]; regimen 1B, N = 20) | Hematologic dose limiting toxicities (cycle 2), Total ([3]; regimen 2C, N = 19)
